The values that follow are results of earlier work, collected in patent US20090247521A1, “SOLUBLE EPOXIDE HYDROLASE INHIBITORS FOR THE TREATMENT OF ENDOTHELIAL DYSFUNCTION” (Arete Therapeutics, Inc., priority 2007, published 2009).

For the data set, the system named is thoracic aortic rings. The conditions noted are these: aortic rings from DOCA-salt hypertensive rats that received the s-EH inhibitor, compared with vehicle and normotensive controls.

SMILES strings stand for the structures.

As to `CCCCCCCCCCCCNC(=O)NC12CC3CC(CC(C3)C1)C2` [ADU, adamantyl dodecyl urea], the acetylcholine-induced endothelium-dependent vasorelaxation result is “augmented acetylcholine-induced endothelium-dependent vasorelaxation, similar to that of the normotensive control animals”.
